# “Also recorded” adds a separate entry of the source.
# Tests used:
# [1] = tested on: sodium selenite-induced New Zealand rabbit cataract model; test: Pharmacodynamic study on sodium selenite-induced New Zealand rabbit cataract model (slit lamp lens opacity grading); type: in vivo; conditions: 1.5% (w/w) eye drops; for Number of lenses with lens opacity grade III: Grade III: translucent lens nucleus; for Number of lenses with lens opacity grade IV: Grade IV: opacity of lens nucleus not involving cortex; for Effect compared with the core fragment compound c (Gc) group / Effect compared with the core fragment compound d (Gd) group / Effect compared with the model group (MG): chi-square test, p<0.05; for Therapeutic effect on the sodium selenite-induced cataract model: conclusion; for Number of lenses with lens opacity grade I: Grade I: vacuoles in periphery or anterior cortex of lens; for Number of lenses with lens opacity grade II: Grade II: slightly increased density of lens nucleus
# Procedure: Neonatal New Zealand rabbits were P7 days old in ordinary grade, and 5 baby rabbits per litter were breastfed with one mother rabbit.
# The young rabbits were randomly divided into 6 groups with 5 rabbits in each group. • 1) Normal control group (CG): Normal feeding. • 2) Disease model group (MG): At day P10, young rabbits were injected subcutaneously with sodium selenite solution (in normal saline) at 20 μmol/kg body weight. After day P15, normal saline eye drops were dripped into the left eye 3 times a day for 30 consecutive days. • 3) Compound 1 group (group 1, G1): At day P10, young rabbits were injected subcutaneously with sodium selenite solution (in normal saline) at 20 μmol/kg body weight. After day P15, 1.5% (w/w) compound 1 eye drops were dripped into the left eye 3 times a day for 30 consecutive days. • 4) Compound 2 group (group 2, G2): At day P10, young rabbits were injected subcutaneously with sodium selenite solution (in normal saline) at 20 μmol/kg body weight of. After day P15, 1.5% (w/w) compound 2 eye drops were dripped into the left eye 3 times a day for 30 consecutive days. • 5) Compound c group (group c, Gc): At day P10, young rabbits were injected subcutaneously with sodium selenite solution (in normal saline) at 20 μmol/kg body weight. After day P15, 1.5% (w/w) compound c eye drops were dripped into the left eye 3 times a day for 30 consecutive days. • 6) 3,3′-dithiodipropionic acid group (group d, Gd): At day P10, young rabbits were injected subcutaneously with sodium selenite solution (in normal saline) at 20 μmol/kg body weight. After day P15, 1.5% (w/w) 3,3′-dithiodipropionic acid eye drops were dripped into the left eye 3 times a day for 30 consecutive days.
# Slit lamp observation: Slit lamp observation was performed on each group of sodium selenite-induced neonatal New Zealand rabbits before the administration, and 7 days, 14 days, and 30 days after the administration respectively, and the degree of lens opacity was graded to determine the therapeutic effect. Lens opacity grading standard [Hiraoka T, Clark J I. Inhibition of lens opacification during the early stages of cataract formation[J].
# mice presbyopia model = test: Pharmacodynamic study on mice presbyopia model (lens thickness deformation under fixed pressure); type: in vivo, Mice (C57BL/6J); conditions: 1.5% (w/w) eye drops; for Lens thickness (deformation): 8 months old C57BL/6J mice, left eye, 3 times a day, 45 consecutive days, micrometer screw after fixed pressure, 5 lenses; for Therapeutic effect on elastic recovery of aged mice: conclusion, 45 days
# Source text: Mice (8 months old, C57BL/6J), normal grade.
# The mice were randomly divided into 4 groups with 5 mice in each group. • 1) Model group (MG): normal saline eye drops were dripped into the left eye for 45 consecutive days, 3 times a day. • 2) Compound 1 Group (group 1, G1): 1.5% (w/w) compound 1 eye drops were dripped into the left eye for 45 consecutive days, 3 times a day. • 3) Compound 2 Group (group 2, G2): 1.5% (w/w) compound 2 eye drops were dripped into the left eye for 45 consecutive days, 3 times a day. • 4) 3,3′-dithiodipropionic acid group (group d, Gd): 1.5% (w/w) 3,3′-dithiodipropionic acid eye drops were dripped into the left eye for 45 consecutive days, 3 times a day.
# Measurement of lens thickness deformation: After 45 consecutive days of eye dripping, mice were euthanized with carbon dioxide and flushed with saline. Lens thickness was measured using a micrometer screw after applying a fixed pressure.
# [2] = of 5 lenses, left eye, 3 times a day, 30 consecutive days
SMILES,"Number of lenses with lens opacity grade III [1, 2]","Number of lenses with lens opacity grade IV [1, 2]","Number of lenses with lens opacity grade V ([1]; of 5 lenses, left eye, 3 times a day, 30 consecutive days, Grade V: opacity of lens nucleus and perinuclear cortex)","Number of lenses with lens opacity grade VI ([1]; of 5 lenses, left eye, 3 times a day, 30 consecutive days, Grade VI: complete opacity of lens)",Lens thickness (deformation) (mice presbyopia model),Effect compared with the core fragment compound c (Gc) group [1],Effect compared with the core fragment compound d (Gd) group [1],Effect compared with the model group (MG) [1],Therapeutic effect on the sodium selenite-induced cataract model [1],"Number of lenses with lens opacity grade I [1, 2]","Number of lenses with lens opacity grade II [1, 2]",Therapeutic effect on elastic recovery of aged mice (mice presbyopia model),Therapeutic effect on elastic recovery of aged mice (mice presbyopia model; listed as G1)
"O=C(O)CCSSCCC(=O)O [3,3′-dithiodipropionic acid, reference compound]",1,2,1,1,1.55 ± 0.01,–,–,–,–,–,–,–,–
C[C@H](CCCC(C)(C)O)C1CC[C@@]2(C)C3=C(CC[C@]12C)[C@@]1(C)CC[C@H](OC(=O)CCSSCCC(=O)O)C(C)(C)[C@@H]1CC3 (stereo partly drawn) [Compound 1],1,1,–,–,1.42 ± 0.03,significantly superior,significantly superior,significantly superior,significant therapeutic effects,1,2,significant therapeutic effects,most significant effect
C[C@H](CCCC(C)(C)OC(=O)CCSSCCC(=O)O)[C@H]1CC[C@@]2(C)C3=C(CC[C@]12C)[C@@]1(C)CC[C@H](OC(=O)CCSSCCC(=O)O)C(C)(C)[C@@H]1CC3 [Compound 2],1,–,–,–,1.51 ± 0.02,significantly superior,significantly superior,significantly superior,significant therapeutic effects; also recorded: best therapeutic effect,3,1,significant therapeutic effects,–
"C[C@H](CCCC(C)(C)O)[C@H]1CC[C@@]2(C)C3=C(CC[C@]12C)[C@@]1(C)CC[C@H](O)C(C)(C)[C@@H]1CC3 [Compound c, reference compound]",3,–,–,–,–,–,–,–,–,–,2,–,–

# Reference: US20260103485A1, “COMPOUND BASED ON OXIDATIVE STRESS AND ANTI-AMYLOID AGGREGATION MECHANISM, PREPARATION METHOD THEREFOR AND USE THEREOF” (SHENZHEN RAYTONE PHARMACEUTICAL CO., LTD, priority 2022, published 2026)
